Laboratory results from patent US20110158944A1, “BRAF BIOMARKERS” (priority 2007, published 2011).
Where two headings read alike, the source gives them in different places.

Key:
Test in all cases: Cell proliferation IC50 (Cell Titer Glo)
LOX = type: cell-based; settings: Homo sapiens, 96 h, read-out: IC50 cell proliferation
Protocol: (§1) IC50 Cell proliferation measurements. Cell proliferation was assessed in the 41 tumor cell lines set forth in Table 2 after 4 days of continuous exposure to either the ERK1/2 inhibitor, compound a or the MEK inhibitor compound b (PD0325901) using Promega Cell Titer Glo reagent (Promega Corp, Madison, Wis.). Promega's CellTiter-Glo™ Luminescent Cell Viability Assay is a sensitive method for assaying cell proliferation using a stable form of luciferase to measure ATP as an indicator of viable cells. This reagent allows a homogeneous method of determining cell number by quantitation of ATP. The luciferase luminescent signal produced is proportional to the number of viable cells present in culture.
(§2) A 1000× compound dose response curve, containing 8 dilutions of each compound, was prepared on a 96-well plate. Compounds were diluted in 100% DMSO to the following (1000×) concentrations: compound b: 1000 μM, 333 μM, 111 μM, 37 μM, 12 μM, 4.1 μM, 1.4 μM and 0.5 μM; compound a: 3000 μM, 1000 μM, 333 μM, 111 μM, 37 μM, 12 μM, 4.1 μM and 1.4 μM. This compound source plate was sealed and kept frozen between uses.
(§3) Cells were grown in RPMI 1640 medium supplemented with 10% Fetal Bovine Serum, 2 mM Glutamine and non-essential amino acids or DMEM/F12 Media containing the same supplements. On day zero, cells were trypsinized, counted and plated into wells of a 96-well Wallac TC Isoplate (Perkin-Elmer Wallac, Gaithersburg, Md.) at a density of 1500-2000 cells per well in 50 μl of complete media. An additional 6-8 replicate well of the cells at the same density were plated on a separate Wallac TC Isoplate. This plate was developed on day 1 to determine the cell-growth baseline.
(§4) On day 1 of treatment, compound was diluted to 2× in media and immediately added to the cells as follows: one ml of media was added to each well of a deep-well 96-well plate and 2 μl of 1000× compound was added with mixing to make 2× compound in media. 50 μl of the media containing 2× compound was added to the cell plates in duplicate points so the final concentrations for each well were as outlined in Table 1. The plates were then returned to a 37° C. incubator and left undisturbed for 4 days. The day 1 (baseline) plates were developed by first adding 50 μl media (without compound) to bring the volume in each well to 100 μl, then adding 100 μl of Cell Titer Glo reagent (as below).
(§5) After four days of treatment, the plates were developed with Cell Titer Glo (CTG) reagent (Promega Corp.; Madison, Wis.). Reagent was reconstituted as described in the product insert. 100 μl of reagent was added to all treatment and control wells and the plates were gently shaken for 5 minutes then incubated an additional 5 minutes before reading in an Analyst AD (Molecular Devices Corporation; Sunnyvale, Calif.) using the Luminescence settings.
(§6) Data was analyzed in Excel using XLfit 4.2, fit model #205 (Dose Response One Site)

Jijoye = type: cell-based; settings: Homo sapiens, 96 h, read-out: IC50 cell proliferation
Protocol: as §1, §2, §3, §4, §5, §6

SK-Mel3 = type: cell-based; settings: Homo sapiens, read-out: IC50 cell proliferation
Protocol: as §1, §2, §3, §4, §5, §6

U-937 = type: cell-based; settings: Homo sapiens, read-out: IC50 cell proliferation
Protocol: as §1, §2, §3, §4, §5, §6

H292 = type: cell-based; settings: Homo sapiens, NCI-H292, 96 h, read-out: IC50 cell proliferation
Protocol: as §1, §2, §3, §4, §5, §6

HT-144 = type: cell-based; settings: Homo sapiens, read-out: IC50 cell proliferation
Protocol: as §1, §2, §3, §4, §5, §6

SJCRH30 = type: cell-based; settings: Homo sapiens, 96 h, read-out: IC50 cell proliferation
Protocol: as §1, §2, §3, §4, §5, §6

N-87 = type: cell-based; settings: Homo sapiens, 96 h, read-out: IC50 cell proliferation
Protocol: as §1, §2, §3, §4, §5, §6

WM-115 = type: cell-based, human; settings: 4 days continuous exposure
Protocol: as §1, §2, §3, §4, §5, §6

WM-266-4 = type: cell-based, human; settings: 4 days continuous exposure
Protocol: as §1, §2, §3, §4, §5, §6

In the case of `O=C(Nc1ccc2[nH]nc(-c3ccncc3)c2c1)C1CCN(CC(=O)N2CCN(c3ccc(-c4ncccn4)cc3)CC2)C1` (stereo not shown) [cpd. a], the IC50 (LOX; Melanoma, BRAF V600E Homozygous, 4 days continuous exposure) is reported as 0.1 µM, the IC50 (Jijoye; Jijoye, Leukemia, BRAF V600V Wild type, 4 days continuous exposure) is reported as over 3 µM and the IC50 (SK-Mel3; 96 h, SK-Mel3, Melanoma, BRAF V600E Heterozygous, 4 days continuous exposure) is reported as 0.118 µM. For the same compound, the IC50 (U-937; 96 h, U-937, Leukemia, BRAF V600V Wild type, 4 days continuous exposure) was over 3 µM, the IC50 (H292; H292, Lung, BRAF V600V Wild type, 4 days continuous exposure) was 0.09 µM and the IC50 (HT-144; 96 h, HT-144, Melanoma, BRAF V600E Homozygous, 4 days continuous exposure) was 0.06 µM. It also gave an IC50 (SJCRH30; SJCRH30, Rhabdomyosarcoma, BRAF V600V Wild type, 4 days continuous exposure) of 2 µM, an IC50 (N-87; N-87, Gastric, BRAF V600V Wild type, 4 days continuous exposure) of 0.307 µM and an IC50 (WM-115; Homo sapiens, WM-115, 96 h, WM-115, Melanoma, BRAF V600D Heterozygous, read-out: IC50 cell proliferation) of under 0.1 µM. The IC50 (WM-115; WM-115, Melanoma, BRAF V600D Heterozygous, read-out: IC50 cell proliferation) was 0.06 µM.

In the case of `O=C(NOC[C@H](O)CO)c1ccc(F)c(F)c1Nc1ccc(I)cc1F` [cpd. b, PD0325901], the IC50 (LOX) is reported as 0.057 µM, the IC50 (Jijoye) is reported as 1 µM and the IC50 (SK-Mel3; SK-MEL3, 96 h) is reported as 0.008 µM. For the same compound, the IC50 (U-937; U-937, 96 h) was 1 µM, the IC50 (H292) was 0.005 µM and the IC50 (HT-144; HT-144, 96 h) was 0.01 µM. For the same compound, the IC50 (SJCRH30) was 1 µM, the IC50 (N-87) was 0.064 µM and the IC50 (WM-115; Homo sapiens, WM-115, 96 h, read-out: IC50 cell proliferation, WM-115, Melanoma, BRAF V600D Heterozygous) was under 0.01 µM. For the same compound, the IC50 (WM-115; read-out: IC50 cell proliferation, WM-115, Melanoma, BRAF V600D Heterozygous) was 0.01 µM, the IC50 (WM-266-4; Homo sapiens, WM 266-4, 96 h, read-out: IC50 cell proliferation, WM-266-4, Melanoma, BRAF V600D Heterozygous) was under 0.01 µM and the IC50 (WM-266-4; read-out: IC50 cell proliferation, WM-266-4, Melanoma, BRAF V600D Heterozygous) was 0.01 µM.
